Test results: US11890288B2, “Sulfonamide or sulfinamide compound having effect of inducing BRD4 protein degradation and pharmaceutical use thereof” (MITSUBISHI TANABE PHARMA CORPORATION, priority 2020, dated 2024)

How the values were obtained:
BRD4 protein = BRD4 protein (Homo sapiens (Human), UniProt O60885); test: BRD4 protein degradation inducing action in LNCaP cells (immunofluorescence, 6 hr); assay type: cell-based; settings: anti-BRD4 fluorescence intensity
Protocol: The degradation inducing action of the compound of the present invention on BRD4 proteins in cancer cells was evaluated in vitro using human prostate cancer LNCaP cells. LNCaP cells were suspended in 10% FBS/RPMI1640, seeded in a 96 well Cell carrier plate (Perkin Elmer) and cultured at 5% CO2, 37° C. overnight. A test compound dissolved in DMSO was diluted with 10% FBS/RPMI1640 and added and the cells were further cultured for 6 hr. After culturing, the cells were immobilized with 4% para-formaldehyde/PBS and further subjected to a permeation treatment with 0.25% Triton X-100/PBS. Thereafter, the cells were blocked with 10% BSA/PBS, Anti-BRD4 (Sigma-Aldrich) solution was added and the cells were incubated at 4° C. overnight. Furthermore, Goat anti-Rabbit IgG(H+L) Cross-Adsorbed Secondary Antibody, Alexa Fluor 546 (Thermo Fisher Scientific) solution, 0.5 μg/mL Hoechst 33342 (Sigma-Aldrich), and 14 μM Acti-Stain 555 Fluorescent Phalloidin (Cytoskeleton) were added. After incubation for 1 hr, BRD4 protein amount was measured by Operetta (Perkin Elmer) as fluorescence intensity (excitation: 560 nm, emission: 572 nm). The BRD4 protein degradation inducing activity of the compound of the present invention in LNCaP cells is shown in DC50 value in Table 3. The DC50 value is a concentration of the compound showing 50% fluorescence intensity when the fluorescence intensity thereof under compound untreated condition is 100%. It was calculated from the straight line connecting the fluorescence intensity at two points enclosing the 50% fluorescence intensity and the compound concentration.

[1] = test system: human prostate cancer LNCaP cells; test: Cytotoxic action on LNCaP cells (WST-8, 96 hr); assay type: cell-based; settings: 96 hr culture
Protocol: The cytotoxic action of the compound of the present invention against human cancer cells was evaluated in vitro. In this experiment, (+)-JQ1 (Nature volume 468, pages 1067-1073 (23 Dec. 2010)) known to have an inhibitory activity on the binding of BRD4 protein and a ligand therefor was used as a positive control drug. Respective cells were suspended in 10% FBS/RPMI1640, seeded in a 96 well plate and cultured at 5% CO2, 37° C. overnight. A test compound dissolved in DMSO was diluted with 10% FBS/RPMI1640 and added and the cells were further cultured for 96 hr. After culturing, the viable cell number was measured using a cell number measurement WST-8 kit (Kishida Chemical Co., Ltd.). As a control, the measurement was performed under conditions free of the test compound. The cytotoxic activity of the compound of the present invention against human prostate cancer LNCaP cells is shown in IC50 value in Table 1. The IC50 value is a concentration of the compound showing 50% cell survival rate when the cell survival rate thereof under compound untreated condition is 100%. It was calculated from the straight line connecting the cell survival rate at two points enclosing the 50% cell survival rate and the compound concentration. In addition, the cytotoxic activity against respective cancer cells of human acute myeloid leukemia MV-4-11 cell, human chronic myeloid leukemia K562 cell, human multiple myeloma MM.1S cell, human diffuse large B-cell lymphoma SU-DHL-6 cell, human T-cell leukemia Jurkat cells, human Burkitt lymphoma Raji cell, human castration-resistant prostate cancer PC-3 cell, human AR-V7 positive castration-resistant prostate cancer 22Rv1 cell, human ovarian cancer A2780 cell, human cisplatin-resistant ovarian cancer SK-OV-03 cell, human bladder cancer 5637 cell, human breast cancer ZR-75-1 cell, human triple negative breast cancer MDA-MB-231 cell, human uterus cervix cancer HeLa cell, human uterine sarcoma MES-SA cell, human stomach cancer SNU-16 cell, human non-small cell lung cancer NCI-H2126 cell, human EGFRT790M mutation-positive non-small cell lung cancer NCI-H1975 cell, human small cell lung cancer NCI-H82 cell, human large cell lung cancer NCI-H460 cell, human colon cancer HCT116 cell, human glioma U-87 MG cell, human pancreatic cancer BxPC-3 cell, human liver cancer HLF cell, human bile duct cancer HuCCT1 cell, human renal cell cancer 786-O cell, and human fibrosarcoma HT1080 cell is shown in IC50 value in Table 2.

Row | SMILES | DC50 (BRD4 protein) [nM] | IC50 [1] [nM]
1 | CCc1ccc(NS(=O)(=O)c2ccc(CNC(=O)c3ccc(-c4ccc(C5=N[C@@H](CC(=O)OC)c6nnc(C)n6-c6sc(C)c(C)c65)cc4)cc3Cl)cc2)c2[nH]cc(C#N)c12 [Example 113, methyl [(6S)-4-{3′-chloro-4′-[({4-[(3-cyano-4-ethyl-1H-indol-7-yl)sulfamoyl]phenyl}methyl)carbamoyl][1,1′-biphenyl]-4-yl}-2,3,9-trimethyl-6H-thieno[3,2-f][1,2,4]triazolo[4,3-a][1,4]diazepin-6-yl]acetate] | 0.33 | 0.3
2 | Cc1sc2c(c1C)C(c1ccc(-c3cc(F)c(C(=O)NCc4ccc(S(=O)(=O)Nc5ccc(C)c6c(C#N)c[nH]c56)cc4)c(Cl)c3)cc1)=N[C@@H](C)c1nnc(C)n1-2 [Example 72, 3-chloro-N-({4-[(3-cyano-4-methyl-1H-indol-7-yl)sulfamoyl]phenyl}methyl)-5-fluoro-4′-[(6S)-2,3,6,9-tetramethyl-6H-thieno[3,2-f][1,2,4]triazolo[4,3-a][1,4]diazepin-4-yl][1,1′-biphenyl]-4-carboxamide] | 65 | 5.5
3 | COC(=O)C[C@@H]1N=C(c2ccc(-c3ccc(C(=O)NCCc4ccc(S(=O)(=O)Nc5ccc(C)c6c(C#N)c[nH]c56)cc4)nc3)cc2)c2c(sc(C)c2C)-n2c(C)nnc21 [Example 90, methyl [(6S)-4-(4-{6-[(2-{4-[(3-cyano-4-methyl-1H-indol-7-yl)sulfamoyl]phenyl}ethyl)carbamoyl]pyridin-3-yl}phenyl)-2,3,9-trimethyl-6H-thieno[3,2-f][1,2,4]triazolo[4,3-a][1,4]diazepin-6-yl]acetate] | 0.091 | 0.19
4 | COC(=O)C[C@@H]1N=C(c2ccc(-c3ccc(C(=O)NCc4ccc(S(=O)(=O)Nc5ccc(C)c6c(C#N)c[nH]c56)cc4)s3)cc2)c2c(sc(C)c2C)-n2c(C)nnc21 [Example 59, methyl [(6S)-4-(4-{5-[({4-[(3-cyano-4-methyl-1H-indol-7-yl)sulfamoyl]phenyl}methyl)carbamoyl]thiophen-2-yl}phenyl)-2,3,9-trimethyl-6H-thieno[3,2-f][1,2,4]triazolo[4,3-a][1,4]diazepin-6-yl]acetate] | 0.22 | 0.23
5 | COC(=O)C[C@@H]1N=C(c2ccc(-c3ccc(C(=O)NCC#Cc4ccc(S(=O)(=O)Nc5ccc(C)c6c(C#N)c[nH]c56)cc4)cc3)cc2)c2c(sc(C)c2C)-n2c(C)nnc21 [Example 31, methyl [(6S)-4-{4′-[(3-{4-[(3-cyano-4-methyl-1H-indol-7-yl)sulfamoyl]phenyl}prop-2-yn-1-yl)carbamoyl][1,1′-biphenyl]-4-yl}-2,3,9-trimethyl-6H-thieno[3,2-f][1,2,4]triazolo[4,3-a][1,4]diazepin-6-yl]acetate] | 5.9 | 4.2
6 | COC(=O)C[C@@H]1N=C(c2ccc(-c3ccc(C(=O)N[C@H](C)c4ccc(S(=O)(=O)Nc5ccc(C)c6c(C#N)c[nH]c56)cc4)c(F)c3)cc2)c2c(sc(C)c2C)-n2c(C)nnc21 [Example 69, methyl [(6S)-4-(4′-{[(1R)-1-{4-[(3-cyano-4-methyl-1H-indol-7-yl)sulfamoyl]phenyl}ethyl]carbamoyl}-3′-fluoro[1,1′-biphenyl]-4-yl)-2,3,9-trimethyl-6H-thieno[3,2-f][1,2,4]triazolo[4,3-a][1,4]diazepin-6-yl]acetate] | 0.056 | 0.12
7 | COC(=O)C[C@@H]1N=C(c2ccc(C#CC(=O)NCc3ccc(S(=O)(=O)Nc4ccc(C)c5c(C#N)c[nH]c45)cc3)cc2)c2c(sc(C)c2C)-n2c(C)nnc21 [Example 5, methyl [(6S)-4-(4-{3-[({4-[(3-cyano-4-methyl-1H-indol-7-yl)sulfamoyl]phenyl}methyl)amino]-3-oxoprop-1-yn-1-yl}phenyl)-2,3,9-trimethyl-6H-thieno[3,2-f][1,2,4]triazolo[4,3-a][1,4]diazepin-6-yl]acetate] | 15 | 4.1
8 | COC(=O)C[C@@H]1N=C(c2ccc(-c3ccc(C(=O)NCc4ccc(S(=O)(=O)Nc5ccc(C)c6c(Cl)c[nH]c56)cc4)cc3)cc2)c2c(sc(C)c2C)-n2c(C)nnc21 [Example 8, methyl [(6S)-4-{4′-[({4-[(3-chloro-4-methyl-1H-indol-7-yl)sulfamoyl]phenyl}methyl)carbamoyl][1,1′-biphenyl]-4-yl}-2,3,9-trimethyl-6H-thieno[3,2-f][1,2,4]triazolo[4,3-a][1,4]diazepin-6-yl]acetate] | 2.4 | 2.8

Further lines, with some results ahead:

Row | DC50 (BRD4 protein) [nM] | SMILES | IC50 [1] [nM]
9 | 0.27 | CCc1ccc(NS(=O)(=O)c2ccc(CNC(=O)c3cc(F)c(-c4ccc(C5=N[C@@H](CC(=O)OC)c6nnc(C)n6-c6sc(C)c(C)c65)cc4)cc3F)cc2)c2[nH]cc(C#N)c12 [Example Compound 119, methyl [(6S)-4-{4′-[({4-[(3-cyano-4-ethyl-1H-indol-7-yl)sulfamoyl]phenyl}methyl)carbamoyl]-2′,5′-difluoro[1,1′-biphenyl]-4-yl}-2,3,9-trimethyl-6H-thieno[3,2-f][1,2,4]triazolo[4,3-a][1,4]diazepin-6-yl]acetate] | 0.45
10 | 0.26 | CCc1ccc(NS(=O)(=O)c2ccc(CNC(=O)c3cc(F)c(-c4ccc(C5=N[C@@H](CC(=O)OC)c6nnc(C)n6-c6sc(C)c(C)c65)cc4)cc3C)cc2)c2[nH]cc(C#N)c12 [Example Compound 120, methyl [(6S)-4-{4′-[({4-[(3-cyano-4-ethyl-1H-indol-7-yl)sulfamoyl]phenyl}methyl)carbamoyl]-2′-fluoro-5′-methyl[1,1′-biphenyl]-4-yl}-2,3,9-trimethyl-6H-thieno[3,2-f][1,2,4]triazolo[4,3-a][1,4]diazepin-6-yl]acetate] | 0.41
11 | 0.028 | CCCOC(=O)C[C@@H]1N=C(c2ccc(-c3ccc(C(=O)NCc4ccc(S(=O)(=O)Nc5ccc(C)c6c(C#N)c[nH]c56)cc4)cc3)cc2)c2c(sc(C)c2C)-n2c(C)nnc21 [Example Compound 130, n-propyl [(6S)-4-{4′-[({4-[(3-cyano-4-methyl-1H-indol-7-yl)sulfamoyl]phenyl}methyl)carbamoyl][1,1′-biphenyl]-4-yl}-2,3,9-trimethyl-6H-thieno[3,2-f][1,2,4]triazolo[4,3-a][1,4]diazepin-6-yl]acetate] | 0.05
12 | 0.13 | CCc1ccc(NS(=O)(=O)c2ccc(CNC(=O)c3ccc(-c4ccc(C5=N[C@@H](CC(=O)OC)c6nnc(C)n6-c6sc(C)c(C)c65)cc4)c(F)c3)cc2)c2[nH]cc(C#N)c12 [Example Compound 115, methyl [(6S)-4-{4′-[({4-[(3-cyano-4-ethyl-1H-indol-7-yl)sulfamoyl]phenyl}methyl)carbamoyl]-2′-fluoro[1,1′-biphenyl]-4-yl}-2,3,9-trimethyl-6H-thieno[3,2-f][1,2,4]triazolo[4,3-a][1,4]diazepin-6-yl]acetate] | 0.32
13 | 0.34 | COC(=O)C[C@@H]1N=C(c2ccc(-c3ccc(C(=O)NCc4ccc(S(=O)(=O)Nc5ccc(C)c6c(C#N)c[nH]c56)cc4)cc3)cc2)c2cc(OC)ccc2-n2c(C)nnc21 [Example Compound 133, methyl [(4S)-6-{4′-[({4-[(3-cyano-4-methyl-1H-indol-7-yl)sulfamoyl]phenyl}methyl)carbamoyl][1,1′-biphenyl]-4-yl}-8-methoxy-1-methyl-4H-[1,2,4]triazolo[4,3-a][1,4]benzodiazepin-4-yl]acetate] | 0.49
